Values after ≈ are worked out from the molar mass of the structure shown.
Assays:
Assay in all cases: Broth microdilution MIC in CAMHB
Assay type in all cases: cell-based
[1] = system: K. pneumoniae 848844 producing SHV-11 and KPC-2; details: Klebsiella pneumoniae, read-out: Minimum Inhibitory Concentration, K. pneumoniae 848844
Method in brief: (§1)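 Per CLSI broth microdilution, colonies were grown 3-5 h at 37° C in cation-adjusted Mueller Hinton broth, then diluted to a starting inoculum of 2-8×10^5 CFU/mL against 2-fold serial compound dilutions. Plates were incubated 16-20 h at 37° C, and MIC was read visually as the lowest concentration with no growth.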

P. aeruginosa ATCC 27853 = details: Pseudomonas aeruginosa, ATCC27853; MHB; read-out: Minimum Inhibitory Concentration, P. aeruginosa ATCC 27853
Method in brief: as §1

E. coli AG100A = details: Escherichia coli, read-out: Minimum Inhibitory Concentration, E. coli AG100A
Method in brief: as §1

[2] = system: P. aeruginosa (ΔmexAB-oprM); details: Pseudomonas aeruginosa, read-out: Minimum Inhibitory Concentration, P. aeruginosa ΔmexAB-OprM
Method in brief: as §1

E. coli ATCC 25922 = details: Escherichia coli, ATCC25922; E. coli ATCC 25922; MHB; read-out: Minimum Inhibitory Concentration, E. coli 25922
Method in brief: as §1

E. coli 901C = details: Escherichia coli; E. coli 901C (hyper-permeable); MHB; read-out: Minimum Inhibitory Concentration, E. coli 901C
Method in brief: as §1

E. coli D22 = details: Escherichia coli; E. coli D22 (hyper-permeable); MHB; read-out: Minimum Inhibitory Concentration, E. coli D22
Method in brief: as §1

P. aeruginosa ATCC 35151 = details: Pseudomonas aeruginosa, ATCC35151; MHB; hyper-permeable strain; read-out: Minimum Inhibitory Concentration, P. aeruginosa ATCC 35151
Method in brief: as §1

E. coli AG100 = details: Escherichia coli; E. coli AG100 (wild-type parent); MHB; read-out: Minimum Inhibitory Concentration, E. coli AG100
Method in brief: as §1

A. baumannii ATCC 19606 = details: Acinetobacter baumannii, ATCC19606; MHB; read-out: Minimum Inhibitory Concentration, A. baumannii ATCC 19606
Method in brief: as §1

[3] = system: K. pneumoniae SI-117 producing VIM-1; details: Klebsiella pneumoniae, read-out: Minimum Inhibitory Concentration, K. pneumoniae SI-117
Method in brief: as §1

[4] = system: K. pneumoniae UMM producing SHV-5 and KPC-2; details: Klebsiella pneumoniae, read-out: Minimum Inhibitory Concentration, K. pneumoniae UMM
Method in brief: as §1

Row | Structure (SMILES) | MIC [1] [µg/mL] | MIC (P. aeruginosa ATCC 27853) [µg/mL] | MIC (E. coli AG100A) [µg/mL] | MIC [2] [µg/mL] | MIC (E. coli ATCC 25922) [µg/mL] | MIC (E. coli 901C) [µg/mL] | MIC (E. coli D22) [µg/mL] | MIC (P. aeruginosa ATCC 35151) [µg/mL] | MIC (E. coli AG100) [µg/mL] | MIC (A. baumannii ATCC 19606) [µg/mL] | MIC [3] [µg/mL] | MIC [4] [µg/mL]
1 | O=C(Nc1ccccc1)NC(C(=O)N[C@H]1Cc2ccc(F)c(C(=O)O)c2OB1O)c1ncc(O)cc1F (stereo partly drawn) [Example 49, (3R)-7-fluoro-3-(2-(3-fluoro-5-hydroxypyridin-2-yl)-2-(3-phenylureido)acetamido)-2-hydroxy-3,4-dihydro-2H-benzo[e][1,2]oxaborinine-8-carboxylic acid] | > 128 | > 128 | > 128 | 32 to 64 (≈ 62.5 to 125 µM) | > 128 | 32 to 64 (≈ 62.5 to 125 µM) | 8 to 16 (≈ 15.6 to 31.2 µM) | 2 to 4 (≈ 3.9 to 7.81 µM) | > 128 | > 128 | > 128 | > 128
2 | CCN1CCN(C(=O)NC(C(=O)N[C@H]2Cc3cccc(C(=O)O)c3OB2O)c2ccc(N)c(F)c2)C(=O)C1=O (stereo partly drawn) [Example 50, (3R)-3-(2-(4-amino-3-fluorophenyl)-2-(4-ethyl-2,3-dioxopiperazine-1-carboxamido)acetamido)-2-hydroxy-3,4-dihydro-2H-benzo[e][1,2]oxaborinine-8-carboxylic acid] | > 128 | > 128 | 2 to 4 (≈ 3.69 to 7.39 µM) | 2 to 4 (≈ 3.69 to 7.39 µM) | 32 to 64 (≈ 59.1 to 118 µM) | < 0.25 | 2 to 4 (≈ 3.69 to 7.39 µM) | 0.5 to 1 (≈ 0.924 to 1.85 µM) | 32 to 64 (≈ 59.1 to 118 µM) | > 128 | > 128 | 32 to 64 (≈ 59.1 to 118 µM)
3 | N=C(N)NCCN1CCN(C(=O)NC(C(=O)N[C@H]2Cc3ccc(F)c(C(=O)O)c3OB2O)c2ncc(O)cc2F)C(=O)C1=O (stereo partly drawn) [Example 51, (3R)-7-fluoro-3-(2-(3-fluoro-5-hydroxypyridin-2-yl)-2-(4-(2-guanidinoethyl)-2,3-dioxopiperazine-1-carboxamido)acetamido)-2-hydroxy-3,4-dihydro-2H-benzo[e][1,2]oxaborinine-8-carboxylic acid] | 32 to 64 (≈ 51.8 to 104 µM) | > 128 | 8 to 16 (≈ 12.9 to 25.9 µM) | 8 to 16 (≈ 12.9 to 25.9 µM) | 32 to 64 (≈ 51.8 to 104 µM) | 2 to 4 (≈ 3.23 to 6.47 µM) | 8 to 16 (≈ 12.9 to 25.9 µM) | 0.5 to 1 (≈ 0.809 to 1.62 µM) | 32 to 64 (≈ 51.8 to 104 µM) | > 128 | 32 to 64 (≈ 51.8 to 104 µM) | 8 to 16 (≈ 12.9 to 25.9 µM)
4 | N=C(N)NC(C(=O)N[C@H]1Cc2ccc(F)c(C(=O)O)c2OB1O)c1ncc(O)cc1F (stereo partly drawn) [Example 52, (3R)-7-fluoro-3-(2-(3-fluoro-5-hydroxypyridin-2-yl)-2-guanidinoacetamido)-2-hydroxy-3,4-dihydro-2H-benzo[e][1,2]oxaborinine-8-carboxylic acid] | > 128 | > 128 | > 128 | > 128 | > 128 | > 128 | > 128 | > 128 | > 128 | > 128 | > 128 | > 128
5 | CCN1CCN(C(=O)NC(C(=O)N[C@H]2Cc3cccc(C(=O)O)c3OB2O)c2cccc(O)c2)C(=O)C1=O (stereo partly drawn) [Example 68, (3R)-3-(2-(4-ethyl-2,3-dioxopiperazine-1-carboxamido)-2-(3-hydroxyphenyl)acetamido)-2-hydroxy-3,4-dihydro-2H-benzo[e][1,2]oxaborinine-8-carboxylic acid] | > 128 | > 128 | 2 to 4 (≈ 3.81 to 7.63 µM) | 2 to 4 (≈ 3.81 to 7.63 µM) | 32 to 64 (≈ 61 to 122 µM) | < 0.25 | 2 to 4 (≈ 3.81 to 7.63 µM) | 0.5 to 1 (≈ 0.954 to 1.91 µM) | 32 to 64 (≈ 61 to 122 µM) | > 128 | 32 to 64 (≈ 61 to 122 µM) | 32 to 64 (≈ 61 to 122 µM)
6 | CCN1CCN(C(=O)NC(C(=O)N[C@H]2Cc3cccc(C(=O)O)c3OB2O)c2ccc(O)cc2O)C(=O)C1=O (stereo partly drawn) [Example 69, (3R)-3-(2-(2,4-dihydroxyphenyl)-2-(4-ethyl-2,3-dioxopiperazine-1-carboxamido)acetamido)-2-hydroxy-3,4-dihydro-2H-benzo[e][1,2]oxaborinine-8-carboxylic acid] | 32 to 64 (≈ 59.2 to 118 µM) | > 128 | 2 to 4 (≈ 3.7 to 7.4 µM) | 32 to 64 (≈ 59.2 to 118 µM) | 32 to 64 (≈ 59.2 to 118 µM) | < 0.25 | 2 to 4 (≈ 3.7 to 7.4 µM) | 8 to 16 (≈ 14.8 to 29.6 µM) | 32 to 64 (≈ 59.2 to 118 µM) | > 128 | 32 to 64 (≈ 59.2 to 118 µM) | 32 to 64 (≈ 59.2 to 118 µM)
7 | CCN1CCN(C(=O)NC(C(=O)N[C@H]2Cc3cccc(C(=O)O)c3OB2O)c2ccc(O)cc2OC)C(=O)C1=O (stereo partly drawn) [Example 70, (3R)-3-(2-(4-ethyl-2,3-dioxopiperazine-1-carboxamido)-2-(4-hydroxy-2-methoxyphenyl)acetamido)-2-hydroxy-3,4-dihydro-2H-benzo[e][1,2]oxaborinine-8-carboxylic acid] | > 128 | > 128 | 2 to 4 (≈ 3.61 to 7.22 µM) | 8 to 16 (≈ 14.4 to 28.9 µM) | > 128 | 0.5 to 1 (≈ 0.902 to 1.8 µM) | 8 to 16 (≈ 14.4 to 28.9 µM) | 8 to 16 (≈ 14.4 to 28.9 µM) | > 128 | > 128 | > 128 | > 128
8 | CCN1CCN(C(=O)NC(C(=O)N[C@H]2Cc3cccc(C(=O)O)c3OB2O)c2cccc(N)c2)C(=O)C1=O (stereo partly drawn) [Example 72, (3R)-3-(2-(3-aminophenyl)-2-(4-ethyl-2,3-dioxopiperazine-1-carboxamido)acetamido)-2-hydroxy-3,4-dihydro-2H-benzo[e][1,2]oxaborinine-8-carboxylic acid] | > 128 | > 128 | 2 to 4 (≈ 3.82 to 7.64 µM) | 8 to 16 (≈ 15.3 to 30.6 µM) | 32 to 64 (≈ 61.1 to 122 µM) | < 0.25 | 2 to 4 (≈ 3.82 to 7.64 µM) | 2 to 4 (≈ 3.82 to 7.64 µM) | 32 to 64 (≈ 61.1 to 122 µM) | > 128 | > 128 | 32 to 64 (≈ 61.1 to 122 µM)
9 | CCN1CCN(C(=O)NC(C(=O)N[C@H]2Cc3cccc(C(=O)O)c3OB2O)c2cccc(NC(=O)c3ccc(O)c(O)c3Cl)c2)C(=O)C1=O (stereo partly drawn) [Example 73, (3R)-3-(2-(3-(2-chloro-3,4-dihydroxybenzamido)phenyl)-2-(4-ethyl-2,3-dioxopiperazine-1-carboxamido)acetamido)-2-hydroxy-3,4-dihydro-2H-benzo[e][1,2]oxaborinine-8-carboxylic acid] | 8 to 16 (≈ 11.5 to 23.1 µM) | 2 to 4 (≈ 2.88 to 5.76 µM) | 2 to 4 (≈ 2.88 to 5.76 µM) | 0.5 to 1 (≈ 0.721 to 1.44 µM) | 2 to 4 (≈ 2.88 to 5.76 µM) | < 0.25 | 2 to 4 (≈ 2.88 to 5.76 µM) | 0.5 to 1 (≈ 0.721 to 1.44 µM) | 2 to 4 (≈ 2.88 to 5.76 µM) | 0.5 to 1 (≈ 0.721 to 1.44 µM) | 8 to 16 (≈ 11.5 to 23.1 µM) | 0.5 to 1 (≈ 0.721 to 1.44 µM)
10 | CCN1CCN(C(=O)NC(C(=O)N[C@H]2Cc3cccc(C(=O)O)c3OB2O)c2ccc(O)c(NC(=O)c3ccc(O)c(O)c3Cl)c2)C(=O)C1=O (stereo partly drawn) [Example 74, (3R)-3-(2-(3-(2-chloro-3,4-dihydroxybenzamido)-4-hydroxyphenyl)-2-(4-ethyl-2,3-dioxopiperazine-1-carboxamido)acetamido)-2-hydroxy-3,4-dihydro-2H-benzo[e][1,2]oxaborinine-8-carboxylic acid] | > 128 | 8 to 16 (≈ 11.3 to 22.5 µM) | 8 to 16 (≈ 11.3 to 22.5 µM) | 0.5 to 1 (≈ 0.704 to 1.41 µM) | > 128 | < 0.25 | 2 to 4 (≈ 2.82 to 5.63 µM) | 0.5 to 1 (≈ 0.704 to 1.41 µM) | 8 to 16 (≈ 11.3 to 22.5 µM) | > 128 | > 128 | > 128
11 | CCN1CCN(C(=O)NC(C(=O)N[C@H]2Cc3cccc(C(=O)O)c3OB2O)c2cccc([N+](=O)[O-])c2)C(=O)C1=O (stereo partly drawn) [Example 75, (3R)-3-(2-(4-ethyl-2,3-dioxopiperazine-1-carboxamido)-2-(3-nitrophenyl)acetamido)-2-hydroxy-3,4-dihydro-2H-benzo[e][1,2]oxaborinine-8-carboxylic acid] | > 128 | > 128 | 8 to 16 (≈ 14.5 to 28.9 µM) | 32 to 64 (≈ 57.8 to 116 µM) | > 128 | 0.5 to 1 (≈ 0.904 to 1.81 µM) | 8 to 16 (≈ 14.5 to 28.9 µM) | 8 to 16 (≈ 14.5 to 28.9 µM) | > 128 | > 128 | > 128 | > 128
12 | CCN1CCN(C(=O)NC(C(=O)N[C@H]2Cc3cccc(C(=O)O)c3OB2O)c2cccc(NS(C)(=O)=O)c2)C(=O)C1=O (stereo partly drawn) [Example 76, (3R)-3-(2-(4-ethyl-2,3-dioxopiperazine-1-carboxamido)-2-(3-(methylsulfonamido)phenyl)acetamido)-2-hydroxy-3,4-dihydro-2H-benzo[e][1,2]oxaborinine-8-carboxylic acid] | > 128 | > 128 | 2 to 4 (≈ 3.33 to 6.65 µM) | 8 to 16 (≈ 13.3 to 26.6 µM) | 32 to 64 (≈ 53.2 to 106 µM) | < 0.25 | 2 to 4 (≈ 3.33 to 6.65 µM) | 2 to 4 (≈ 3.33 to 6.65 µM) | 8 to 16 (≈ 13.3 to 26.6 µM) | > 128 | > 128 | 32 to 64 (≈ 53.2 to 106 µM)

From patent US20230114728A1 (Venatorx Pharmaceuticals, Inc., priority 2019, published 2023)
